The source of these data is PubChem BioAssay (NCI).

In general, GI50 refers to the concentration that inhibits growth by half. A word on the TGI: it is the concentration at which net growth stops. A lower TGI goes with greater sensitivity of the cells.

Values joined by “and” are separate entries in the source; they are usually repeats but may differ in a detail not shown here. Equal values may be shown once.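 Grown in 96-well plates, cells were treated for 48 hours with each compound at five concentrations. Insufficient inhibition: endpoint recorded as highest concentration tested. GI50: concentration for 50% inhibition of growth. TGI: total growth inhibition.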

Among the test systems are HOP-92 NSCLC; HS 578T breast; K-562 leukemia; M14 melanoma; MALME-3M melanoma; MDA-MB-231 breast; MOLT-4 leukemia; RPMI-8226 leukemia; SR leukemia; U251 CNS.
Holding throughout (assay): DTP human tumour cell line panel, 48 h

On to `COc1ccc2c(c1)C(=O)c1c-2c(Nc2ccc(C(C)=O)cc2)nc2ccccc12`, for which the GI50 with HOP-92 NSCLC was 24000 nM; with HS 578T breast it was 8390 nM; in the assay with K-562 leukemia it was above 100000 nM; with M14 melanoma, 64600 nM; in the assay with MALME-3M melanoma, 49600 nM; with MDA-MB-231 breast, 11400 nM. Besides, the GI50 in the assay with MOLT-4 leukemia was above 100000 nM; in the assay on RPMI-8226 leukemia, 89500 nM; with SR leukemia, 55700 nM; in the assay with U251 CNS, 13.5 µM. The concentration for total growth inhibition (TGI) with HOP-92 NSCLC is 73.7 µM; in the assay on HS 578T breast, above 100 µM; in the assay on K-562 leukemia, above 100 µM; with M14 melanoma it was above 100 µM; in the assay with MALME-3M melanoma, above 100 µM; in the assay on MDA-MB-231 breast it was 29.5 µM. Also, the TGI with MOLT-4 leukemia is above 100 µM; in the assay on RPMI-8226 leukemia, above 100 µM; with SR leukemia, above 100 µM; in the assay with U251 CNS, 40.6 µM.
Regarding `CN1CCN(Cc2ccc(NC(=O)c3cncc(C#Cc4cncc5ncccc45)c3)cc2C(F)(F)F)CC1`, the GI50 was 1160 nM in the assay with HOP-92 NSCLC; 1360 nM with HS 578T breast; 961 nM in the assay with M14 melanoma; 284 nM with MALME-3M melanoma; 1070 nM in the assay on MDA-MB-231 breast; 1180 nM in the assay on MOLT-4 leukemia. The GI50 with RPMI-8226 leukemia was 3590 nM; with SR leukemia it was 3230 nM; in the assay on U251 CNS it was 9.49 µM. Also, the TGI in the assay with HOP-92 NSCLC is 4.92 µM; with HS 578T breast, 7.93 µM; with K-562 leukemia, 11.4 µM; in the assay on M14 melanoma it was 5.09 µM; with MALME-3M melanoma, 1.05 µM; with MDA-MB-231 breast it was 3.05 µM. The concentration for total growth inhibition (TGI) in the assay on MOLT-4 leukemia was found to be 16 µM; in the assay with RPMI-8226 leukemia, 22.2 µM; in the assay on SR leukemia it was 34.6 µM; with U251 CNS it was 21.8 µM.
Regarding `CC(C)(C#N)c1cc(F)cc(C(=O)Nc2cc(Nc3ncccc3-c3ncnc4nc[nH]c34)ccc2F)c1`, the concentration for 50% growth inhibition (GI50) was 137 nM in the assay with HOP-92 NSCLC; 1410 nM with HS 578T breast; 606 nM with K-562 leukemia; 68.2 nM with M14 melanoma; 23.6 nM in the assay with MALME-3M melanoma; 306 nM in the assay on MDA-MB-231 breast. In addition, the GI50 was 4270 nM in the assay with MOLT-4 leukemia, 1920 nM with RPMI-8226 leukemia, 7310 nM in the assay with SR leukemia and 3.55 µM in the assay on U251 CNS. The concentration for total growth inhibition (TGI) in the assay on HOP-92 NSCLC is 0.842 µM; with HS 578T breast, above 10 µM; in the assay on K-562 leukemia, above 10 µM; in the assay on M14 melanoma, 1.02 µM; in the assay with MALME-3M melanoma it was 0.074 µM; in the assay on MDA-MB-231 breast, 4.8 µM. Further, the TGI in the assay on MOLT-4 leukemia, in the assay on RPMI-8226 leukemia, in the assay with SR leukemia and with U251 CNS was above 10 µM in each case.
Turning to `O=[N+]([O-])c1ccc2c(N3CCC(CCCC4CCN(c5ncnc6cc([N+](=O)[O-])ccc56)CC4)CC3)ncnc2c1`, the GI50 is 4890 nM in the assay on HOP-92 NSCLC; above 46300 nM in the assay with HS 578T breast; 217 nM in the assay on K-562 leukemia; above 49000 nM in the assay with M14 melanoma; above 59700 nM in the assay with MALME-3M melanoma; above 47100 nM in the assay with MDA-MB-231 breast. Further, the GI50 in the assay with MOLT-4 leukemia is 24800 nM; in the assay on RPMI-8226 leukemia, 388 nM; in the assay with SR leukemia it was 2500 nM; with U251 CNS, above 42.2 µM. Besides, the TGI in the assay with HOP-92 NSCLC is above 76 µM; with HS 578T breast, above 100 µM; in the assay with K-562 leukemia, above 100 µM; with M14 melanoma, above 100 µM; with MALME-3M melanoma, above 92.1 µM; in the assay with MDA-MB-231 breast, above 100 µM. In addition, the TGI with MOLT-4 leukemia is above 100 µM; with RPMI-8226 leukemia, 96.9 µM; in the assay with SR leukemia it was above 100 µM; with U251 CNS it was above 100 µM.
With `COc1ccc(C2=NN(C(=O)c3cc(OC)c(OC)c(OC)c3)C(c3ccc(Cl)cc3)C2)cc1OC` (stereo unspecified), the concentration for total growth inhibition (TGI) was 5.41 µM in the assay on HOP-92 NSCLC; above 42.4 µM in the assay on HS 578T breast; above 100 µM with K-562 leukemia; above 100 µM in the assay on M14 melanoma; 98.9 µM in the assay on MALME-3M melanoma; above 68.3 µM with MDA-MB-231 breast. The concentration for total growth inhibition (TGI) was above 100 µM with MOLT-4 leukemia, above 100 µM with RPMI-8226 leukemia, above 100 µM in the assay on SR leukemia and 42.2 µM in the assay with U251 CNS. For the same compound, the GI50 was 3590 nM in the assay with HS 578T breast; 777 nM in the assay with K-562 leukemia; 4660 nM in the assay with M14 melanoma; 3950 nM in the assay on MALME-3M melanoma; 2270 nM in the assay with MDA-MB-231 breast; 2730 nM with MOLT-4 leukemia. The GI50 with RPMI-8226 leukemia was 535 nM; in the assay with SR leukemia, 448 nM; in the assay on U251 CNS it was 3.67 µM.
With `CNC(=O)c1ccc2cc(C3(O)CCn4cncc43)ccc2c1` (stereo unspecified), the GI50 with HOP-92 NSCLC, in the assay on HS 578T breast, in the assay with K-562 leukemia, in the assay with M14 melanoma, in the assay on MALME-3M melanoma and with MDA-MB-231 breast was above 100000 nM each time. Further, the GI50 in the assay on MOLT-4 leukemia is above 100000 nM; in the assay with RPMI-8226 leukemia it was above 100000 nM; with SR leukemia, above 100000 nM; in the assay with U251 CNS, above 100 µM. The total growth inhibition concentration (TGI) with HOP-92 NSCLC, in the assay on HS 578T breast, in the assay on K-562 leukemia, in the assay with M14 melanoma, in the assay on MALME-3M melanoma and with MDA-MB-231 breast was above 100 µM in each case. Further, the TGI in the assay on MOLT-4 leukemia, in the assay on RPMI-8226 leukemia, in the assay on SR leukemia and with U251 CNS was above 100 µM each time.
On to `O=C(Nc1cccc(Oc2nnc(Cl)c3ccccc23)c1)Nc1ccc(Cl)c(C(F)(F)F)c1`, for which the GI50 in the assay with HOP-92 NSCLC was 352 nM; with HS 578T breast, 1720 nM; with K-562 leukemia, 630 nM; in the assay on M14 melanoma it was 707 nM; with MALME-3M melanoma, 968 nM; with MDA-MB-231 breast it was 358 nM. Also, the GI50 is 494 nM with MOLT-4 leukemia, 336 nM in the assay on RPMI-8226 leukemia, 321 nM with SR leukemia and 1.31 µM in the assay with U251 CNS. Also, the TGI in the assay on HOP-92 NSCLC turned out to be 1.96 µM; with HS 578T breast, 8.18 µM; in the assay on K-562 leukemia, 4.27 µM; in the assay with M14 melanoma it was 3.16 µM; with MALME-3M melanoma, 4 µM; in the assay with MDA-MB-231 breast, 2.44 µM. In addition, the TGI in the assay with MOLT-4 leukemia is 4.18 µM; in the assay on RPMI-8226 leukemia it was 1.51 µM; in the assay with SR leukemia, 1.42 µM; with U251 CNS, 3.93 µM.
Take `CN(C)CCOc1ccc(/C(=C(/CCCl)c2ccccc2)c2ccccc2)cc1`: the TGI is 17.1 µM in the assay with HOP-92 NSCLC; 2.46 µM and 23.6 µM with K-562 leukemia; 2.5 µM and 23.6 µM with RPMI-8226 leukemia; 3.13 µM and 10 µM in the assay on SR leukemia. Moreover, the GI50 with HS 578T breast is 895 nM; in the assay on K-562 leukemia, 1020 nM; in the assay on M14 melanoma it was 960 nM; in the assay on MALME-3M melanoma, 976 nM; with MDA-MB-231 breast, 1070 nM; with MOLT-4 leukemia it was 1120 nM. In addition, the results for the GI50 in the assay with RPMI-8226 leukemia, in the assay with SR leukemia and in the assay on U251 CNS were 1030 nM, 1180 nM and 0.815 µM, respectively.
